Biological target: C-Raf FL (Homo sapiens (Human), UniProt P04049, Y340E/Y341E)
Test: In vitro Raf activity determination (Alpha Screen, phospho-MEK), C-Raf FL (full length, Y340E/Y341E)
Format: biochemical
Settings: ATP 1 μM; 60 min pre-incubation; 1 hour reaction; column head does not say FL or TR
Procedure, shortened: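 Sf9-expressed C-Raf incubated with biotinylated kinase-dead MEK1 (K97R) in 50 mM Tris pH 7.5, 15 mM MgCl2, 0.01% BSA, 1 mM DTT with compound, 60 min at room temperature. Phospho-MEK detected by anti-p-MEK AlphaScreen luminescence; IC50 by non-linear regression.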

| Compound | IC50 |
| --- | --- |
| Cc1ncc(NC(=O)c2ccnc(C(C)(C)F)c2)cc1-c1cnc(OCCO)c(C2(F)COC2)c1 [Example 40, N-(5′-(3-fluorooxetan-3-yl)-6′-(2-hydroxyethoxy)-2-methyl-[3,3′-bipyridin]-5-yl)-2-(2-fluoropropan-2-yl)isonicotinamide] | 3470 pM |
| Cc1ncc(NC(=O)c2ccnc(C(C)(C)F)c2)cc1-c1cc(OCCO)nc(C2(CF)COC2)c1 [Example 133, N-(2′-(3-(fluoromethyl)oxetan-3-yl)-6′-(2-hydroxyethoxy)-2-methyl-[3,4′-bipyridin]-5-yl)-2-(2-fluoropropan-2-yl)isonicotinamide] | 1280 pM |
| Cc1ccc(NC(=O)c2cccc(C(F)(F)F)c2)cc1-c1cccc(C2COC2)c1 [Example 2, N-(6-methyl-3′-(oxetan-3-yl)-[1,1′-biphenyl]-3-yl)-3-(trifluoromethyl)benzamide] | 700 pM |
| Cc1ncc(NC(=O)c2cccc(C(F)(F)F)c2)cc1-c1cc(N2CCOC2=O)nc(C2(O)CCOCC2)c1 [Example 301, N-(2′-(4-hydroxytetrahydro-2H-pyran-4-yl)-2-methyl-6′-(2-oxooxazolidin-3-yl)-[3,4′-bipyridin]-5-yl)-3-(trifluoromethyl) benzamide] | 951 pM |
| COc1ncc(-c2cc(NC(=O)c3ccnc(C(C)(C)C#N)c3)cnc2C)cc1C1(F)COC1 [Example 80, 2-(2-cyanopropan-2-yl)-N-(5′-(3-fluorooxetan-3-yl)-6′-methoxy-2-methyl-[3,3′-bipyridin]-5-yl)isonicotinamide] | 2000 pM |
| CCOc1ncc(-c2cc(NC(=O)c3cccc(C(F)(F)F)c3)cnc2C)cc1C1(CF)CCOC1 (centres unmarked) [Example 167, N-(6′-ethoxy-5′-(3-(fluoromethyl)tetrahydrofuran-3-yl)-2-methyl-[3,3′-bipyridin]-5-yl)-3-(trifluoromethyl) benzamide] | 1000 pM |
| Cc1ccc(NC(=O)c2ccnc(C(C)(F)F)c2)cc1-c1cc(OCCO)nc(C2(C)CCOCC2)c1 [Example 206, 2-(1,1-difluoroethyl)-N-(3-(2-(2-hydroxyethoxy)-6-(4-methyltetrahydro-2H-pyran-4-yl)pyridin-4-yl)-4-methylphenyl) isonicotinamide] | 400 pM |
| CCC(F)(F)c1cc(C(=O)Nc2ccc(C)c(-c3cc(C4CCOCC4)nc(N4CCC(O)CC4)c3)c2)ccn1 [Example 188, 2-(1,1-difluoropropyl)-N-(3-(2-(4-hydroxypiperidin-1-yl)-6-(tetrahydro-2H-pyran-4-yl)pyridin-4-yl)-4-methylphenyl)-2-isonicotinamide] | 621 pM |
| Cc1ccc(NC(=O)c2cc(C(F)(F)F)nc(N(C)C)n2)cc1-c1cc(OCCO)nc(C2CCOCC2)c1 [Example 257, 2-(dimethylamino)-N-(3-(2-(2-hydroxyethoxy)-6-(tetrahydro-2H-pyran-4-yl)pyridin-4-yl)-4-methylphenyl)-6-(trifluoromethyl) pyrimidine-4-carboxamide] | 1000 pM |
| Cc1ncc(NC(=O)c2ccnc(C(C)(C)F)c2)cc1-c1cc(C2(F)COC2)cc(OCCO)n1 [Example 48] | 7530 pM |
| Cc1ccc(NC(=O)c2ccnc(C(F)(F)F)c2)cc1-c1cc(OCCO)nc(C2(C)CCOCC2)c1 [Example 205, N-(3-(2-(2-hydroxyethoxy)-6-(4-methyltetrahydro-2H-pyran-4-yl)pyridin-4-yl)-4-methylphenyl)-2-(trifluoromethyl) isonicotinamide] | 400 pM |
| CCOc1ncc(-c2cc(NC(=O)c3ccnc(C(C)(C)C#N)c3)ccc2C)cc1C1(CF)CCOC1 (centres unmarked) [Example 288, 2-(2-cyanopropan-2-yl)-N-(3-(6-ethoxy-5-(3-(fluoromethyl)tetrahydrofuran-3-yl)pyridin-3-yl)-4-methylphenyl)isonicotinamide] | 600 pM |
| CCOc1ncc(-c2cc(NC(=O)c3ccnc(C(C)(C)C#N)c3)ccc2C)cc1C1(O)CCOC1 (centres unmarked) [Example 293, 2-(2-cyanopropan-2-yl)-N-(3-(6-ethoxy-5-(3-hydroxytetrahydro-furan-3-yl)pyridin-3-yl)-4-methylphenyl) isonicotinamide] | 2000 pM |

The remaining compounds from weak to strong by IC50, led by results:

| IC50 | Compound |
| --- | --- |
| 400 pM | Cc1ccc(NC(=O)c2ccnc(C(C)(F)F)c2)cc1-c1cc2c(c(C3CCOCC3)c1)OC(C)(C)C(=O)N2 [Example 197, 2-(1,1-difluoroethyl)-N-(3-(2,2-dimethyl-3-oxo-8-(tetrahydro-2H-pyran-4-yl)-3,4-dihydro-2H-benzo[b][1,4]oxazin-6-yl)-4-methylphenyl) isonicotinamide] |
| 300 pM | Cc1ncc(NC(=O)c2cccc(C(F)(F)F)c2)cc1-c1cc(C2COC2)c2nccn2n1 [Example 9, N-(6-methyl-5-(8-(oxetan-3-yl)imidazo[1,2-b]pyridazin-6-yl)pyridin-3-yl)-3-(trifluoromethyl)benzamide] |
| 300 pM | Cc1ccc(NC(=O)c2ccnc(C(C)(F)F)c2)cc1-c1cc(OCCO)nc(C2(CF)CCOCC2)c1 [Example 211, 2-(1,1-difluoroethyl)-N-(3-(2-(4-(fluoromethyl)tetrahydro-2H-pyran-4-yl)-6-(2-hydroxyethoxy)pyridin-4-yl)-4-methylphenyl) isonicotinamide] |
| 297 pM | Cc1ncc(NC(=O)c2cccc(C(F)(F)F)c2)cc1-c1cc(NCCO)nc(C2CCOCC2)c1 [Example 180, N-(2′-((2-hydroxyethyl)amino)-2-methyl-6′-(tetrahydro-2H-pyran-4-yl)-[3,4′-bipyridin]-5-yl)-3-(trifluoromethyl) benzamide] |
| 211 pM | Cc1ccc(NC(=O)c2ccnc(C(C)(F)F)c2)cc1-c1cc(OCCO)nc(C2(F)COC2)c1 [Example 54, 2-(1,1-difluoroethyl)-N-(3-(2-(3-fluorooxetan-3-yl)-6-(2-hydroxyethoxy)pyridin-4-yl)-4-methylphenyl)isonicotin-amide] |
| 200 pM | Cc1ccc(NC(=O)c2ccnc(C3(C(F)(F)F)CC3)c2)cc1-c1cc(OC[C@H](O)CO)nc(C2CCOCC2)c1 [Example 275, (R)-N-(3-(2-(2,3-dihydroxypropoxy)-6-(tetrahydro-2H-pyran-4-yl)pyridin-4-yl)-4-methylphenyl)-2-(1-(trifluoromethyl)cyclopropyl) isonicotinamide] |
| 70 pM | Cc1ccc(NC(=O)c2ccnc(C(F)(F)F)c2)cc1-c1cc(C2CCOCC2)c(OC2CCOCC2)nn1 [Example 313, N-(4-methyl-3-(5-tetrahydro-2H-pyran-4-yl-6-((tetrahydro-2H-pyran-4-yl)oxy)pyridazin-3-yl)phenyl)-2-(trifluoromethyl)isonicotinamide] |
| 40 pM | COC1(c2cc(-c3cc(NC(=O)c4cccc(C(F)(F)F)c4)ccc3C)cc(NCCO)n2)COC1 [Example 153, N-(3-(2-((2-hydroxyethyl)amino)-6-(3-methoxyoxetan-3-yl)pyridin-4-yl)-4-methylphenyl)-3-(trifluoromethyl)benzamide] |
| 30 pM | Cc1ccc(NC(=O)c2cc(Cl)ccn2)cc1-c1cc(OCCO)nc(C2CCOCC2)c1 [Example 261, 4-chloro-N-(3-(2-(2-hydroxyethoxy)-6-(tetrahydro-2H-pyran-4-yl)pyridin-4-yl)-4-methylphenyl) picolinamide] |
| 20 pM | N-(3-(2- (hydroxymethyl)-2- methyl-3-oxo-8- (tetrahydro-2H- pyran-4-yl)-3,4-dihydro- 2H- benzo[b][1,4]oxazin-6- yl)-4-methylphenyl)-5- (trifluoromethyl) pyridazine-3-carboxamide [Example 204] |

Reference: patent US10167279B2 (NOVARTIS AG, priority 2014, dated 2019)
